The source of these data is patent US9913858B2, “Prevention and treatment of toxicosis” (priority 2013, dated 2018).

Series [1] can be described thus: Serum and cerebrospinal fluid bromide concentrations in the sheep trial. Format: in vivo. The following applies: sheep, sheep. How it is done: Venous blood samples collected for biochemical analysis and haematocrit (PCV), and urine for USG, at three specific time points during the experiment for all animals: 1) on entry to the trial; 2) on date of entry to the end of trial protocol and, 3) on day of necropsy.
A full clinical examination was performed prior to euthanasia. At euthanasia, 100 I.U. heparin (Provet Riverina Pty Ltd) was injected into the jugular vein, followed shortly by Lethabarb (20 mL/40 kg LW). Immediately after euthanasia, the ventral articulation of C1 was exposed and cerebrospinal fluid (CSF) collected using a 23 g needle. The head was then removed and subjected to perfusion fixation. Briefly, the carotid arteries were exposed and a small catheter inserted and ligated to secure the perfusion lines. Two liters of 0.1% phosphate buffered saline (PBS) containing 3000 I.U of heparin/L was then slowly perfused via the ligated vessels at a pressure of 90 mm Hg using a Microgon peristaltic Pump (Microgon, Laguna Hills, Calif.). Once complete this was replaced with 4% paraformaldehyde (Sigma-Alrich) in 0.1% PBS and a further two liters allowed to perfuse slowly through the tissues of the head. Once complete, catheters were removed and the whole head placed at 4° C. overnight to complete fixation. Twenty-four hours post perfusion fixation the brain was removed from the skull and placed in 10% formal saline for storage until dissection for processing to wax sections.
Absorbance was measured with a spectrophotometer at 440 nm. […] The lower limit of quantification (LOQ) was 25 μg/mL.

The subject of series [2] is lolitrem B toxicosis (Rye Grass Staggers). The experiment in a line: Clinical and neurological signs in sheep fed lolitrem B-containing toxic feed with or without potassium bromide. The following applies: sheep, Group 5: prophylactic oral KBr only. Type of series: in vivo. As to the method: Animals were exposed to a controlled diet containing 0.16 mg/kg body weight (BW) lolitrem B toxin rising to 0.27 mg/kg BW after 21 days exposure to toxic feed. Toxin was delivered as perennial rye grass seed (GA66 AR98, Grasslanz Technology Ltd, NZ) containing very high levels of lolitrem B toxin (11 ppm DM) as a component of the animal's feed intake.
On entry to the trial, all animals receiving toxic feed were exposed to a diet containing experimental ryegrass seed with a final lolitrem B concentration of 0.08 mg/kg LW, lucerne chaff and molasses 30% w/v for 3 days. After this induction period, the toxin content of the feed was increased to 0.16 mg/kg LW for the duration of the trial. […] Ryegrass seed constituted up to 65% of available Feed on Offer (FOO) by dry weight contributing a metabolisable energy of 12.1 Mj/kg DM.
At entry to the trial, all animals were subjected to a full clinical examination. Live weight was recorded. Venous blood and urine samples were collected for laboratory. Animals were also subjected to gait analysis, neurological examination including proprioceptive testing, cranial nerve examination and papillary light and menace reflexes. Electromyography (EMG) of tricep and neck muscles was performed. Gait analysis (see below) was repeated at three day intervals until onset of significant clinical signs and/or gait abnormality at which point animals were subjected to gait analysis daily. Gait analysis was recorded on video each occasion.
General clinical signs were also noted on a daily basis; these included observations of nervousness or agitation, changes in normal placement of body, limb or head position changes in faecal consistency, feeding behaviour or water consumption, observeable tremor of the body or head, eye position (strabismus) and movement (nystagmus), locomotory disturbances, or any other clinical changes worthy of note. Feed and water intake was monitored daily for the duration of the trial. Heart rate, respiration rate at rest and rectal temperature were also monitored daily.
Prophylactic sheep received a split loading dose of 300 mg/kg on day 1, 120 mg/kg (100 mg LD+20 mg/kg daily maintenance dose) on day 2, 120 mg/kg on day 3 and 20 mg/kg daily for the duration of the trial. An acute treatment dose of 300 mg/kg LW was used for the trial. Both prophylactic and acute treatment doses were envisaged to give serum concentrations of 750 to 1000 μg/ml for the duration of the initial weeks of the trial.
Group 1—Negative Control: lucerne chaff only;
Group 2—Positive Control: lucerne chaff containing 0.16 mg/kg LW lolitrem B;
Prophylactic treatment sheep (Groups 4 & 5) received a split loading dose of 300 mg/kg on day 1 of the trial, 120 mg/kg (100 mg LD 20 mg/kg daily maintenance dose) on day 2, 120 mg/kg on day 3 and 20 mg/kg daily thereafter. Acute therapy sheep were dosed with a single dose of 300 mg/kg on day of falling.
End of the trial was defined for Groups 2 and 3 as date of falling. Group 1 animals entered the end of trial protocol with their Group 2 counterparts. Group 4 and 5 animals entered the end of trial protocol after 22 days. This end of trial protocol consisted of the following analysis: • On Day 1: animals were subjected to a full clinical examination, gait analysis, urine and blood collection, neurological examination and EMG. • On Day 2: further gait analysis was recorded, • On Day 3: animals were again subjected to full clinical examination, gait analysis, urine and blood collection, neurological examination and EMG as well as live weight recorded prior to necropsy.

The test system is the same in series [3]. The experiment in a line: Gait analysis and time to falling. Type of series: in vivo, sheep. As to the method: Gait analysis was performed on entry to the trial and at designated time points throughout the trial as described above. To achieve this, animals were moved from their individual pens to an external yard in their cohort groups (five animals, one from each treatment). Animals were then encouraged to move at a run, initially in a group and then individually, for a minimum of three minutes per animal whilst their movement was captured on video and gait observations recorded.
Once all animals had been analysed the whole cohort was returned to their individual pens. Gait abnormalities such as stumbling, falling or disorientation were noted, including observation of Type 1 or Type 2 gait changes as described in Combs et, al., (2014). Type I movement disorder is defined as an impaired alternating movement (dysdiadochokinesia), bunny-hopping gait and failure to maintain an appropriate direction. Type 2 movement disorder is defined by increasing rigidity of limbs on forced movement resulting finally in tonic fore and hind limb extension with the animal collapsing into sternal or lateral recumbency (Combs, Rendell et at 2014). Scores between those denoted above were considered as a gradation between the stated clinical observations. Analysis of gait was performed using the following scale in Table 2 and a composite score noted for each animal for each day during the end of trial protocol. A total score out of 30 was determined for each animal. The higher the score the greater the locomotory disturbance. Time to falling was determined post trial by analysis of video material,
Animals that met the entry criteria (severe Type 2 gait abnormality and falling) were submitted to the end-of-trial protocol. […] Animals were subjected to the following tests on days 1 and 3: gait analysis, full neurological examination, venous blood and urine sampling and EMG. Only gait analysis was performed on day 2.

For another series, the system named is sheep. As to conditions: 120 mg/kg bromide. As to the method: KBr solution was administered via an orogastric tube, then flushed with 500 mL water. Blood samples were collected at 0, 1, 2, 3, 4, 6, 8, 10, 12, 24 h, then at 12 h intervals to 240 h, then at 24 h intervals to 336 h. A final sample was taken at 504 h. When collecting blood samples at 1 h through to 10 h the rumen was auscultated, over the caudo-dorsal blind sack, to determine if the high salt load affected rumen motility.

For the compound `Br` [bromide], the concentration ratio (Kp) at 48 hours in series [1] (cerebrospinal fluid and serum, oral, 300 mg/kg, mean ratio of serum bromide:CSF bromide, Group 3, acute bromide treatment plus lolitrem B, 48 hours) stood at 0.81. Further, the Kp at 22 days in series [1] (cerebrospinal fluid and serum, oral, mean ratio of serum bromide:CSF bromide, Group 4, bromide prophylactic treatment plus lolitrem B) was 0.91; in series [1] (cerebrospinal fluid and serum, oral, mean ratio of serum bromide:CSF bromide, Group 5, bromide prophylactic controls), 0.74. Further, in series [1] (prophylactic bromide plus lolitrem B versus prophylactic bromide alone, 22 days), the “serum bromide, factor Group 4 over Group 5” value is recorded as 1.27. Also, the “animals showing evidence of mild anxiolysis” value in series [2] came out at 519. The “Altered stance, number of animals affected” value in series [2] (no toxic feed, 22 days) is on record as 4. Further, the “Fine tremor, number of animals affected” value in series [2] (no toxic feed, 22 days) is “one”. The time to falling in series [3] (printed as Group 2 Day 2, 24 hours after single oral dose of bromide 300 mg/kg LW) stood at 145.66 ± 22.07 s; in series [3] (printed as Group 2 Day 3, 48 hours after single oral dose of bromide 300 mg/kg LW), 124.75 ± 22.06 s; in series [3] (printed as Group 2 day 1, intoxicated sheep before single oral dose of bromide 300 mg/kg LW) it was 52.44 s. For the same compound, in the series on sheep (either treatment group (IV, PO)), the adverse reactions result was “No adverse reactions were noted”. For the same compound, the “tranquilising effect, subjective observation” value in the series with sheep (IV group) is reported as “mild tranquilising effect”. Besides, the neurological effects entry in the series on sheep (PO group) is given as “no discernable neurological effects”. Also, in the series on sheep (PO group), the rumen motility result is recorded as “no observed alteration”.

By Kp is commonly meant tissue or fluid exposure divided by exposure in the circulation.
